Reference: the METLIN SMRT retention time set (Domingo-Almenara et al. 2019)

Assay: gradient 5% acetonitrile 3 min, to 50% in 2 min, to 85% in 15 min, held 3 min, 100 µL/min
Settings: column: Zorbax Extend-C18 2.1 x 50 mm; eluents: water / acetonitrile, 0.1% formic acid
How it was run: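 Mixtures of ~100 pure standards were chromatographed on a Zorbax Extend-C18 column (2.1 × 50 mm, 1.8 μm) at 100 μL/min using water and acetonitrile, each with 0.1% formic acid. Detection used a quadrupole time-of-flight mass spectrometer in positive and negative ionization mode, and data collection spanned 3 months. Retention time was obtained from adduct peaks picked computationally and each checked manually.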

| SMILES | RP-LC retention time |
| --- | --- |
| O=C(CCc1nc(C2=CCN(Cc3ccc(Cl)cc3)CC2)no1)NCc1cccs1 | 688 s |
| CCNC(=O)c1nn(-c2ccc(F)cc2)c(OC)cc1=O | 645 s |
| O=C(Cn1nc(N2CCCC2)c2ccccc2c1=O)Nc1cccc(Cl)c1 | 989 s |
| COc1ccc(C(=O)NCCC2=CCCCC2)cc1 | 846 s |
| Cc1noc(-c2cccc(OC3CN(C(=O)NC(C)C)C3)c2)n1 | 760 s |
| Cc1cc(C)cc(NC(=O)C2CCN(S(=O)(=O)c3cc(-c4noc(C)n4)cs3)CC2)c1 | 953 s |
| O=c1c2scc(-c3ccc(Cl)cc3)c2ncn1Cc1cc(=O)n2ccccc2n1 | 878 s |
| CCOc1ccccc1-c1noc(CN2N=NC3C(=O)N(c4ccc(OC)c(OC)c4)C(=O)C32)n1 (stereo unspecified) | 868 s |
| CC1=C(c2ccc(C(C)C)cc2)S(=O)(=O)N=C1N1CCC(NC(=O)CCC(C)C)CC1 | 1020 s |
| COc1ccc(-c2ncc3c(n2)CCN(S(=O)(=O)c2cccs2)C3)cc1 | 997 s |
| COCc1cc2nn(CC(=O)Nc3ccc(F)cc3C)c(=O)n2c(-c2ccccc2)n1 | 826 s |
| c1ccc(-c2nc(-c3ccnc(N4CCOCC4)c3)no2)nc1 | 665 s |
| O=C(Cc1cccs1)Nc1c(C(=O)N2CCN(c3ccccn3)CC2)oc2ccccc12 | 675 s |
| CCN1CCc2ncnc(SCC(=O)Nc3ccc(Cl)cc3C(F)(F)F)c2C1 | 597 s |
| Cc1nc2scc(C)n2c(=O)c1NC(=O)CCSc1ccccc1 | 675 s |
| CC1=C(c2ccccc2)S(=O)(=O)N=C1N1CCCN(C(=O)NCC(C)C)CC1 | 768 s |
| CCCS(=O)(=O)N1CCc2ccc(NC(=O)c3ccno3)cc2C1 | 716 s |
| CCc1ccc(NC(=O)Cn2ccc3ccc(-c4nnc(C)o4)cc32)cc1 | 885 s |
| CCOC(=O)C1CCCN(C(=O)Cn2cnc(-c3cccs3)cc2=O)C1 (stereo unspecified) | 684 s |
| COc1cccc(S(=O)(=O)N2CCC(c3nc(C(=O)N(C)C)c(C)o3)CC2)c1 | 794 s |
| COc1ccc(CC(=O)NCCc2c[nH]c3ccc(Cl)cc23)cc1 | 848 s |
| O=C(COc1ccc(Cl)cc1Cl)Nc1nc(-c2ccccc2)cs1 | 1190 s |
| Cc1ccc(-c2nc(NC3CCCCC3C)c3ccccc3n2)cc1 (stereo unspecified) | 906 s |

| SMILES | RP-LC retention time |
| --- | --- |
| CCn1cc(-c2nc(C(=O)Nc3cc(F)ccc3Cl)cs2)c2cccnc21 | 1330 s |
| Cc1ccc(C2=NC3(CCN(C(=O)COc4ccc(Cl)cc4)CC3)ON2)cc1 | 935 s |
| c1cc(-c2noc(C3CC3)n2)cc(N2CCOCC2)n1 | 695 s |
| O=C(NCc1cccs1)c1cc(=O)c(OCc2ccccc2)co1 | 727 s |
| COC(=O)C1=CN(c2ccc(F)c(Cl)c2)c2ccccc2S1(=O)=O | 910 s |
| CN1C2CCC1CC(OC(=O)C(O)c1ccccc1)C2 (stereo unspecified) | 794 s |
| Cc1cccc(N2CCN(S(=O)(=O)c3ccc4c(c3)CCCC(=O)N4)CC2)c1C | 983 s |
| Cn1c(=O)n(C)c2cc(N3CCOCC3)c(NC(=O)Cc3ccccc3)cc21 | 752 s |
| CCc1cc(N2CCN(C(=O)c3ccc(Br)cc3)CC2)nc2nnc(C)n12 | 640 s |
| CC(C)n1c(N2CCN(C(=O)CCc3nc4ccccc4[nH]3)CC2)cc(=O)n(C(C)C)c1=O | 648 s |
| CC(C)Cc1cc(-c2nn3c(CSc4ccccc4)nnc3s2)n[nH]1 | 948 s |
| CCOc1ccccc1NC(=O)N1CCC2(CC1)NC(=O)c1cc(Cl)ccc1N2C | 904 s |
| COc1ccc(-c2nc(C3CC(=O)N(c4ccc(Cl)cc4)C3)no2)c(OC)c1 (stereo unspecified) | 996 s |
| CCOc1ccc(-c2csc3c(=O)n(Cc4ccccn4)cnc23)cc1OCC | 865 s |
| COc1ccc(-n2ncc3c(=O)n(Cc4nc(-c5ccccc5C)no4)cnc32)cc1 | 1060 s |
| CC(Oc1ccccc1)C(=O)N1CCN(C(=O)c2nnn3c2COC(c2ccc(Cl)cc2)C3)CC1 (stereo unspecified) | 972 s |
| O=C(O)Cc1sc(Nc2ccccc2Cl)nc1-c1ccccc1 | 942 s |
| Cc1cccc2nnc(N3CCN(C(=O)c4ccc(F)c(F)c4)CC3)n12 | 652 s |
| Cc1ccc(-c2nnc(-c3ccccc3Cl)o2)cc1S(=O)(=O)N1CCOCC1 | 969 s |
| O=C(Cn1nc2c3ccc(F)cc3ncn2c1=O)Nc1ccc(Cl)cc1 | 760 s |
| COc1ccc(-c2ncc3c(=O)n(Cc4cccc(OC)c4)c(=O)n(C)c3n2)cc1 | 1130 s |
| CC(C)Cc1csc(-c2csc(S(=O)(=O)NCc3ccccc3Cl)c2)n1 | 1330 s |
| Clc1ccc2nnc(Cc3ccccc3)n2n1 | 739 s |

| SMILES | RP-LC retention time |
| --- | --- |
| CS(=O)(=O)Nc1ccc(-c2noc(CN3C(=O)COc4ccccc43)n2)cc1 | 805 s |
| COc1ccc(C(C)NC(=O)c2cn3c(n2)COCC3)cc1OC (stereo unspecified) | 608 s |
| Cc1ccc(N2CN(CCC(C)C)S(=O)(=O)c3cccnc32)cc1 | 1150 s |
| Cn1c(N2CCC(C(=O)Nc3ccc(Cl)cc3)CC2)cc(=O)n(C)c1=O | 732 s |
| CCn1nccc1C(=O)N1C[C@@H]2C[C@H](NS(=O)(=O)c3ccccc3)[C@H]1C2 | 677 s |
| O=C(NCc1ccco1)C1CCN(c2cc(N3CCSCC3)ncn2)CC1 | 620 s |
| Cc1ccc(S(=O)(=O)n2ccn(C(=O)C(C)Oc3ccccc3)c2=O)cc1 (stereo unspecified) | 712 s |
| COc1ccc(/C=C2\Cc3ccccc3C2=O)cc1OC | 892 s |
| CNC(=O)c1c(NC(=O)c2ccc(Cl)cc2)sc2c1CCC2 | 1180 s |
| COc1cc(/C=C2\CCOC2=O)cc(OC)c1OC | 802 s |
| CCn1cc(CCNC(=O)Nc2ccc(OC)cc2OC)c2cccnc21 | 649 s |
| Cc1ccc(-c2nc3ccccn3c2NC(=O)Nc2cc(F)ccc2F)cc1 | 707 s |
| COCc1nc(N2CCN(c3ccc(OC)cc3)CC2)ncc1C(=O)O | 666 s |
| O=c1n(Cc2ccc(F)cc2Cl)nc2n1CCCCC2 | 751 s |
| O=C(NCc1ccc2c(c1)OCO2)C1CC(=O)N(CCc2c[nH]c3ccc(Cl)cc23)C1 (stereo unspecified) | 799 s |
| CCc1cc2c(cc(C(=O)NCc3cccs3)n2C)s1 | 1010 s |
| CCc1nc(-c2ccc(-c3noc(CN4C(=O)COc5ccc(Cl)cc54)n3)cc2)cs1 | 1270 s |
| CC(C)c1nc2c(N)cccn2n1 | 613 s |
| Cn1c(=O)n(C)c2cc(CNc3ccc(N4CCOCC4)c(Cl)c3)ccc21 | 811 s |
| Cc1ccc(NC(=O)N2CCCC2c2nncn2-c2ccccc2)c(Cl)c1 (stereo unspecified) | 794 s |
| COc1cccc(-n2c(=O)c(C(=O)Nc3ccc(Cl)cc3)c(O)c3cccnc32)c1 | 1340 s |
| O=C(NCC1CN(c2ccc(F)cc2)C(=O)O1)c1cc(Cl)ccc1Cl (stereo unspecified) | 797 s |
| CCCn1c(=O)sc2cc(S(=O)(=O)N3CCC(C(=O)N4CCOCC4)CC3)ccc21 | 770 s |

| SMILES | RP-LC retention time |
| --- | --- |
| COC(=O)c1ccc(-c2nc3cnccn3c2Nc2cccc(C)c2C)cc1 | 980 s |
| Cc1oc2ncnc(N3CCCC(C(=O)NCc4cccc(Cl)c4)C3)c2c1C (stereo unspecified) | 920 s |
| O=C(Cc1ccccc1Cl)N1CCN(c2nc(CN3CCOCC3)cs2)CC1 | 640 s |
| Cc1ccc(-c2nnc(Cc3nc(-c4ccncc4)no3)o2)cc1C | 850 s |
| O=C(/C=C/c1ccc(CN(CCO)CCc2c[nH]c3ccccc23)cc1)NO | 622 s |
| O=C(O)c1ccc2c(c1)N(C(=O)c1ccc(F)cc1)CC2 | 748 s |
| O=C(O)C1CCN(C(=O)CCc2c[nH]c3ccccc23)CC1 | 662 s |
| COc1cccc(-c2nc(N3CCSCC3)ncc2C(=O)O)c1 | 857 s |
| CCc1nnc([C@@H]2CC(F)(F)CN2C(=O)Cn2nc(C)cc2C)o1 | 612 s |
| CCCC(NC(=O)c1ccc(Cl)cc1)C(=O)Nc1nc2ccccc2[nH]1 (stereo unspecified) | 742 s |
| COc1ccc(CN2C(=O)CN(C3CCCCC3)C(=O)C2c2cccs2)cc1 (stereo unspecified) | 915 s |
| Cc1ccnc(NC(c2cccs2)c2ccc3cccnc3c2O)c1 (stereo unspecified) | 676 s |
| Cc1cc2c(=O)n(CC(=O)Nc3cc(F)ccc3F)ccc2s1 | 817 s |
| COc1cc(OC)cc(N2C(=O)C3N=NN(Cc4nc(-c5ccccc5)no4)C3C2=O)c1 (stereo unspecified) | 959 s |
| COc1ccc(-c2ncc3c(n2)CCN(C(=O)Nc2cc(C)ccc2C)C3)cc1 | 660 s |
| CC(C)NC(=O)CN1C(=O)CSc2ccc(C(=O)N3CCCCC3)cc21 | 673 s |
| CSc1ccccc1C(=O)NCC1CCN(S(C)(=O)=O)CC1 | 641 s |
| CC(C)c1nc(-c2ccc(OC3CCN(C(=O)Cc4c[nH]c5ccccc45)C3)cc2)no1 (stereo unspecified) | 923 s |
| CC(C)(C)c1ccc(CN2CCC(OC3CCN(C4CCCC4)C3=O)CC2)cc1 (stereo unspecified) | 758 s |
| COc1cccc(-c2cc3c(=O)n(CC(O)c4ccccc4)ccn3n2)c1 (stereo unspecified) | 860 s |
| CCOC(=O)c1cc(S(=O)(=O)N2CCCC2C(=O)Nc2ccc(F)cc2C)cn1C (stereo unspecified) | 940 s |
| COCCNCc1ccc(-c2cc(Cl)ccc2Cl)o1 | 684 s |
